Experimental data reported in PubChem BioAssay (NCI).
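Where inhibition never reached the appropriate level, the endpoint shown equals the highest concentration tested. Otherwise, values were interpolated linearly from a five-concentration, 48-hour dose response in 96-well plates. TGI is the concentration that stops growth completely.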

What was measured:
Assay in all cases: NCI-60 cell line screen, 48 h
BT-549 breast = tested on: BT-549 breast
HT29 colon = tested on: HT29 colon
MDA-MB-435 = tested on: MDA-MB-435
786-0 renal = tested on: 786-0 renal
T-47D breast = tested on: T-47D breast
CAKI-1 renal = tested on: CAKI-1 renal
UO-31 renal = tested on: UO-31 renal
SN12C renal = tested on: SN12C renal
SK-MEL-5 melanoma = tested on: SK-MEL-5 melanoma
OVCAR-3 ovarian = tested on: OVCAR-3 ovarian
NCI-H23 lung = tested on: NCI-H23 lung
M14 melanoma = tested on: M14 melanoma
SF-539 CNS = tested on: SF-539 CNS
HCT-116 colon = tested on: HCT-116 colon
COLO 205 colon = tested on: COLO 205 colon
NCI-H226 lung = tested on: NCI-H226 lung
ACHN renal = tested on: ACHN renal
MDA-N = tested on: MDA-N
RPMI-8226 leukemia = tested on: RPMI-8226 leukemia
U251 CNS = tested on: U251 CNS

SMILES | TGI (BT-549 breast) [µM] | TGI (HT29 colon) [µM] | TGI (MDA-MB-435) [µM] | TGI (786-0 renal) [µM] | TGI (T-47D breast) [µM] | TGI (CAKI-1 renal) [µM] | TGI (UO-31 renal) [µM] | TGI (SN12C renal) [µM] | TGI (SK-MEL-5 melanoma) [µM] | TGI (OVCAR-3 ovarian) [µM] | TGI (NCI-H23 lung) [µM] | TGI (M14 melanoma) [µM] | TGI (SF-539 CNS) [µM] | TGI (HCT-116 colon) [µM] | TGI (COLO 205 colon) [µM] | TGI (NCI-H226 lung) [µM] | TGI (ACHN renal) [µM] | TGI (MDA-N) [µM] | TGI (RPMI-8226 leukemia) [µM] | TGI (U251 CNS) [µM]
COC(=O)/C=C1/OC(c2ccc(Br)cc2)=C(Br)C1=O | 11.7 | 11.3 | 20.9 | 6.31 | 15.1 | 6.32 | 24.4 | 17.6 | 19.9 | 9.71 | 17.1 | 10.8 | 12.7 | 7.75 | 4.12 | 34.7 | 16.8 | 12.6 | 6.06 | 6.88
Nc1sccc1S(=O)(=O)c1ccsc1N | > 100 | > 100 | > 100 | > 100 | > 100 | > 100 | > 100 | > 100 | > 100 | > 100 | > 100 | > 100 | > 100 | > 100 | > 100 | > 100 | > 100 | > 100 | > 100 | > 100
Cn1c(=O)c2[nH]c(/N=N\n3ccc4ccccc43)nc2n(C)c1=O | > 100 | > 100 | > 100 | > 100 | > 100 | > 100 | > 100 | > 100 | > 100 | > 100 | > 100 | > 100 | > 100 | > 100 | > 100 | > 100 | > 100 | > 100 | > 100 | > 100
CCOC(=O)c1c(NS(=O)(=O)c2ccc(Br)cc2)sc2c1CCCC2 | 19.4 | 10.1 | 49.1 | 29.4 | 14.5 | 33.7 | 15.7 | 12.1 | 18.2 | 9.9 | 18.7 | 9.92 | 19.8 | 21.1 | 32.1 | 9.91 | 14.6 | 52.9 | 30.5 | 25.4
